In the supplement of paper PMC10307832:

Legend:
Assay in all cases: relative viability (nuclei count vs DMSO), 5 days (fraction); higher = more cells survive
[1] = compound: Cn1c(Nc2ccc(C(F)(F)F)cc2)nc2cc(Oc3ccnc(-c4ncc(C(F)(F)F)[nH]4)c3)ccc21 [RAF265] + Cc1cc(Nc2cc(N3CCN(C)CC3)nc(Sc3ccc(NC(=O)C4CC4)cc3)n2)n[nH]1 [Tozasertib] (partner 0.1 µM)
Procedure, shortened: (§1)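 One day after seeding in 1536-well plates, lung cancer cell lines were dosed by pin tool. Dosing was either single-drug or a fixed anchor-drug dose plus five library-drug doses (not always all listed) in √10 steps. After 5 days, nuclei were stained in one fix-and-stain step and counted on 4× images, and relative viability is the nuclei count of treated wells over that of vehicle wells, given as the median of duplicate plates.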

[2] = compound: C1=CC=C2C(=C1)C=CC(=C2SSC3=C(C=CC4=CC=CC=C43)O)O [IPA-3] + C[C@]1(O)C[C@@H](c2nc(-c3ccc4ccc(-c5ccccc5)nc4c3)c3c(N)nccn32)C1 [Linsitinib] (partner 1 µM)
Procedure, shortened: as §1

[3] = compound: Cn1c(Nc2ccc(C(F)(F)F)cc2)nc2cc(Oc3ccnc(-c4ncc(C(F)(F)F)[nH]4)c3)ccc21 [RAF265] + C[C@]1(O)C[C@@H](c2nc(-c3ccc4ccc(-c5ccccc5)nc4c3)c3c(N)nccn32)C1 [Linsitinib] (partner 1 µM)
Procedure, shortened: as §1

[4] = compound: C1=CC=C2C(=C1)C=CC(=C2SSC3=C(C=CC4=CC=CC=C43)O)O [IPA-3] + COc1cc2c(Oc3ccc(NC(=O)C4(C(=O)Nc5ccc(F)cc5)CC4)cc3F)ccnc2cc1OCCCN1CCOCC1 [Foretinib] (partner 0.25 µM)
Procedure, shortened: as §1

Cell Line | relative viability ([1]; first compound 0.01 µM) | relative viability ([1]; first compound 0.03162 µM) | relative viability ([1]; first compound 0.1 µM) | relative viability ([1]; first compound 0.3162 µM) | relative viability ([1]; first compound 1 µM) | relative viability ([2]; first compound 0.2 µM) | relative viability ([2]; first compound 0.6325 µM) | relative viability ([2]; first compound 2 µM) | relative viability ([2]; first compound 6.325 µM) | relative viability ([2]; first compound 20 µM) | relative viability ([3]; first compound 0.01 µM) | relative viability ([3]; first compound 0.03162 µM) | relative viability ([3]; first compound 0.1 µM) | relative viability ([3]; first compound 0.3162 µM) | relative viability ([3]; first compound 1 µM) | relative viability ([4]; first compound 0.2 µM) | relative viability ([4]; first compound 0.6325 µM) | relative viability ([4]; first compound 2 µM) | relative viability ([4]; first compound 6.325 µM) | relative viability ([4]; first compound 20 µM)
HCC-44 | 0.892 | 0.779 | 1.25 | 1.07 | 0.821 | 0.772 | 0.588 | 0.708 | 0.632 | 0.686 | 0.643 | 0.617 | 0.667 | 0.661 | 0.64 |  |  |  |  | 
HCC-78 | 0.349 | 0.472 | 0.417 | 0.463 | 0.396 | 0.569 | 0.597 | 0.454 | 0.583 | 0.635 | 0.553 | 0.468 | 0.574 | 0.47 | 0.439 | 0.555 | 0.611 | 0.606 | 0.668 | 0.655
HCC-366 | 0.137 | 0.165 | 0.138 | 0.0437 | 0.0369 | 0.996 | 0.627 | 0.723 | 0.756 | 0.696 | 0.674 | 0.69 | 0.881 | 0.748 | 0.459 | 0.929 | 0.851 | 0.911 | 0.833 | 0.856
HCC-827 | 0.412 | 0.421 | 0.445 |  | 0.361 | 0.916 | 0.943 | 0.935 | 0.917 | 0.925 | 0.968 | 0.973 | 0.978 |  | 0.762 | 1.04 | 1.04 | 1.08 | 0.952 | 0.947
HOP-62 | 0.338 | 0.326 | 0.406 | 0.515 | 0.225 | 0.903 | 1.07 | 0.754 | 1.05 | 1.2 | 0.89 |  | 1.07 | 0.976 | 0.604 | 1.28 | 1.04 | 1.21 | 1.09 | 1.19
IA-LM |  |  |  |  |  | 0.922 | 0.526 | 0.639 | 0.505 | 0.404 | 0.641 | 0.532 | 0.536 | 0.732 | 0.404 | 1.24 | 0.989 | 1.16 | 1.05 | 1.23
LC-2-ad | 0.529 | 0.459 | 0.507 | 0.356 | 0.335 | 0.885 | 0.845 | 0.86 | 0.795 | 0.86 | 0.807 | 0.762 | 0.727 | 0.316 | 0.293 | 0.986 | 0.934 | 0.832 | 0.938 | 1.03
LCLC-97TM1 | 0.223 | 0.141 | 0.156 | 0.109 | 0.0904 | 0.208 | 0.215 | 0.181 | 0.202 | 0.215 | 0.169 | 0.158 | 0.149 | 0.136 | 0.11 | 0.958 | 0.928 | 0.915 | 0.861 | 0.958
LCLC-103H | 0.472 | 0.48 | 0.42 | 0.424 | 0.227 | 1.1 | 1.07 | 1.01 | 1.1 | 1.16 | 1.03 | 1.14 | 1.1 | 0.944 | 0.641 | 0.908 | 0.862 | 0.756 | 0.725 | 0.775
LK-2 | 0.164 | 0.166 | 0.153 | 0.178 | 0.152 | 0.553 | 0.436 | 0.595 | 0.526 | 0.518 | 0.615 | 0.555 | 0.67 | 0.671 | 0.351 | 1.25 | 1.31 | 1.3 | 1.63 | 1.5
LOU-NH91 | 0.705 | 0.618 | 0.78 | 0.457 | 0.467 | 0.985 | 0.92 | 0.979 | 0.99 | 1.14 | 1.03 | 0.818 | 1.03 | 0.599 | 0.644 | 0.955 | 0.861 | 0.942 | 0.916 | 1.07
NCI-H522 | 0.57 | 0.602 | 0.546 | 0.553 | 0.521 |  |  |  |  |  |  |  |  |  |  |  |  |  |  | 
NCI-H1299 |  |  |  |  |  | 1.16 | 0.99 | 0.942 | 0.946 | 0.999 | 1 | 0.878 | 0.749 | 0.578 | 0.414 | 1.1 | 1.07 | 1.17 | 0.678 | 1.06
NCI-H1563 |  |  |  |  |  | 1.31 | 1.24 | 1.32 | 1.34 | 1.3 | 1.13 | 1.32 | 1.17 | 1.26 | 1.18 | 0.996 | 0.87 | 1.01 | 1.01 | 0.867
NCI-H1623 | 0.507 | 0.474 | 0.475 |  | 0.392 |  |  |  |  |  |  |  |  |  |  | 0.97 | 0.899 | 0.878 | 0.815 | 0.923
NCI-H1648 | 0.425 | 0.431 | 0.598 | 0.466 | 0.417 |  |  |  |  |  |  |  |  |  |  |  |  |  |  | 
NCI-H1650 | 0.377 | 0.425 | 0.473 | 0.446 | 0.304 |  |  |  |  |  |  |  |  |  |  | 1.27 | 1.29 | 1.39 | 1.03 | 1.45
NCI-H1703 |  |  |  |  |  | 1.1 | 0.39 | 0.974 | 0.787 | 1.05 | 0.43 | 0.561 | 0.819 | 0.171 | 0.251 | 0.295 | 0.339 | 0.331 | 0.349 | 0.391
NCI-H1792 |  |  |  |  |  | 0.626 | 0.449 | 0.693 | 0.518 | 0.666 | 0.576 | 0.506 | 0.583 | 0.326 | 0.126 |  |  |  |  | 
NCI-H2170 | 0.734 | 0.651 | 0.752 | 0.587 | 0.538 |  |  |  |  |  |  |  |  |  |  | 1.03 | 0.942 | 1.04 | 0.948 | 1.13
NCI-H2342 | 0.551 | 0.592 | 0.542 | 0.52 | 0.463 |  |  |  |  |  |  |  |  |  |  | 1.11 | 1.04 | 1.15 | 1.19 | 1.3
SW 900 | 0.648 | 0.583 | 0.594 | 0.526 | 0.295 |  |  |  |  |  |  |  |  |  |  | 1.04 | 0.792 | 0.975 | 1.14 | 1.08
